Our source for the IC50 and viability values is ChEMBL document CHEMBL3286208, “Pyranocoumarins from Glehnia littoralis inhibit the LPS-induced NO production in macrophage RAW 264.7 cells” (Bioorg Med Chem Lett, 2014).

For orientation: IC50 means the concentration needed to halve the response being measured. A lower IC50 goes with greater potency in that assay.

In one series the test system is RAW264.7. The series can be described thus: Inhibition of LPS-induced NO production in mouse RAW264.7 cells after 24 hrs by Griess method. The conditions noted are these: RAW264.7, 24 h. Type of series: functional, cell-based. Background: Griess reagent forms a coloured azo dye with nitrite.
Series [1] in a line: Cytotoxicity against mouse RAW264.7 cells assessed as cell viability at 0.5 to 50 uM. Type of series: cell-based. The conditions noted are these: read-out: Activity.

Compound `N=C(N)NN` [PIMAGEDINE] gave an IC50 in the series with RAW264.7 of 16.9 µM.

In turn, `CC(C)CC(=O)O[C@H]1c2c(ccc3ccc(=O)oc23)OC(C)(C)[C@H]1OC(=O)CC(C)C` returned an IC50 with RAW264.7 of 7.4 µM. For the same compound, the viability at up to 50 µM in series [1] is more than 90%.

In turn, `CC(C)=CC(=O)O[C@H]1c2c(ccc3ccc(=O)oc23)OC(C)(C)[C@H]1OC(=O)C=C(C)C` gave an IC50 in the series on RAW264.7 of 9.8 µM. For the same compound, in series [1], the viability at up to 50 µM is more than 90%.

As for `CC(=O)O[C@H]1c2c(ccc3ccc(=O)oc23)OC(C)(C)[C@H]1OC(=O)C=C(C)C`, it took 44.3 µM to reach half-maximal inhibition in the series on RAW264.7 (IC50). The viability at up to 50 µM in series [1] was more than 90%.

`CC(C)=CC(=O)O[C@H]1c2c(ccc3ccc(=O)oc23)OC(C)(C)[C@H]1OC(=O)CC(C)C`: in the series with RAW264.7, half-maximal inhibition (IC50) required 9.9 µM. In addition, the viability at up to 50 µM in series [1] was more than 90%.

Compound `CC(=O)O[C@H]1c2c(ccc3ccc(=O)oc23)OC(C)(C)[C@H]1OC(=O)CC(C)C` came in with an IC50 in the series on RAW264.7 of 18.8 µM. Also, the viability at up to 50 µM in series [1] was more than 90%.

`CC(C)C(=O)O[C@H]1c2c(ccc3ccc(=O)oc23)OC(C)(C)[C@H]1OC(=O)C(C)C` yielded a half-maximal inhibitory concentration (IC50) in the series with RAW264.7 of 28.2 µM. Moreover, in series [1], the viability at up to 50 µM was more than 90%.
